Measurements published in PMC12432378 (Cell Reports Medicine, 2025).
pIC50: −log10 of the molar value. Positions of bridges follow the written chain, without caps; N, C: chain ends. Non-standard residues stand in square brackets, D forms with d. Residues, ends and D or L forms follow the SMILES beside them. S5 = C=CCCC[C@](C)(N)C(=O)O

Test system: SARS-CoV-2 variants, including Delta, BA.2.75, XBB.1.16, and KP.2
Conditions: BA.2.75, XBB.1.16, and KP.2, 48 h

| SMILES | pIC50 |
| --- | --- |
| CC[C@H](C)[C@H](NC(=O)[C@H](C)NC(=O)[C@H](CCSC)NC(=O)[C@H](CCC(=O)O)NC(=O)[C@H](CC(=O)O)NC(=O)[C@H](CO)NC(=O)[C@H](CC(C)C)NC(=O)[C@H](CC(=O)O)NC(=O)[C@H](CC(C)C)NC(=O)[C@H](CC(C)C)NC(=O)[C@@H](NC(=O)[C@@H](NC(=O)[C@H](CC(N)=O)NC(=O)[C@@H](NC(=O)[C@H](CCCCN)NC(=O)[C@H](CO)NC(=O)[C@@H](NC(=O)[C@H](CCC(=O)O)NC(C)=O)[C@@H](C)CC)[C@@H](C)CC)C(C)C)[C@@H](C)O)C(=O)N[C@@H](CC(C)C)C(=O)N[C@@H](CC(C)C)C(=O)N[C@@H](CCC(=O)O)C(=O)N[C@@H](C)C(=O)N[C@H](C(=O)N[C@@H](CCCCN)C(=O)N[C@@H](CCC(N)=O)C(=O)N[C@@H](CC(C)C)C(=O)N[C@@H](CC(N)=O)C(=O)N[C@@H](CC(=O)O)C(=O)N[C@@H](CO)C(=O)N[C@@H](Cc1ccc(O)cc1)C(=O)N[C@H](C(=O)N[C@@H](CC(=O)O)C(=O)N[C@@H](CC(C)C)C(=O)N[C@@H](CCCCN)C(=O)N[C@@H](CCC(=O)O)C(=O)N[C@@H](CC(C)C)C(N)=O)[C@@H](C)CC)[C@@H](C)CC [MjHKU4r-HR2P9] | 6.34 to 6.42 |
| CC[C@H](C)[C@H](NC(=O)[C@H](C)NC(=O)[C@H](CCSC)NC(=O)[C@H](CCC(=O)O)NC(=O)[C@H](CC(=O)O)NC(=O)[C@H](CO)NC(=O)[C@H](CC(C)C)NC(=O)[C@H](CC(=O)O)NC(=O)[C@H](CC(C)C)NC(=O)[C@H](CC(C)C)NC(=O)[C@@H](NC(=O)[C@@H](NC(=O)[C@H](CC(N)=O)NC(=O)[C@@H](NC(=O)[C@H](CCCCN)NC(=O)[C@H](CO)NC(=O)[C@@H](NC(=O)[C@H](CCC(=O)O)NC(C)=O)[C@@H](C)CC)[C@@H](C)CC)C(C)C)[C@@H](C)O)C(=O)N[C@@H](CC(C)C)C(=O)N[C@@H](CC(C)C)C(=O)N[C@@]1(C)CCCC=CCCC[C@@](C)(C(=O)N[C@@H](CC(C)C)C(=O)N[C@@H](CC(N)=O)C(=O)N[C@@H](CC(=O)O)C(=O)N[C@@H](CO)C(=O)N[C@@H](Cc2ccc(O)cc2)C(=O)N[C@H](C(=O)N[C@@H](CC(=O)O)C(=O)N[C@@H](CC(C)C)C(=O)N[C@@H](CCCCN)C(=O)N[C@@H](CCC(=O)O)C(=O)N[C@@H](CC(C)C)C(N)=O)[C@@H](C)CC)NC(=O)[C@H](CCCCN)NC(=O)[C@H]([C@@H](C)CC)NC(=O)[C@H](C)NC1=O [MjHKU4r-HR2P10] (Ac-EISKINVTLLDLSDEMAILL[S5]AIK[S5]LNDSYIDLKEL-NH2; staple 21-25) | 6.72 to 7.07 |
